# Tests used:
# VEGF (rhVEGF165) [1] = molecular target: T1, VEGF (rhVEGF165) (Homo sapiens, UniProt P15692); test: VEGF binding to PEG microspheres in serum-containing and albumin-only solutions; settings: 0.4% peptide density, albumin-only solution (1.25 wt.% BSA in PBS); p < 0.05 (Fig. 2D)
# T1 sequence (P15692 1-191 isoform P15692-4): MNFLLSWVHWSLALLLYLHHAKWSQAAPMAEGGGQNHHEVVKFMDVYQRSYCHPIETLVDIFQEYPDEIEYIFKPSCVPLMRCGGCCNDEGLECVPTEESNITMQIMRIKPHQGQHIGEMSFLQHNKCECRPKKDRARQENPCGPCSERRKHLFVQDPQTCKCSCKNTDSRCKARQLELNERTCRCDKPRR
# [2] = ref [27], cited from earlier work
# VEGF = settings: soluble VBP vs soluble VBPWT; ref [27]; cited from earlier work
# endothelial cells = settings: VEGF supplement to endothelial cells; ref [30]; cited from earlier work
# VEGF (rhVEGF165) [3] = molecular target: T1, VEGF (rhVEGF165); test: Heparin modulation of VEGF binding to microspheres
substance,measurement,setting,value
CEFdAdYdLdIDFNWEYPASK [VBP],"KD, VBP-VEGF vs VBPWT-VEGF, albumin-only solution",VEGF (rhVEGF165) [1],exhibited a lower KD than VBPWT-VEGF
same,Stability against protease-mediated degradation,[2]; four D-substituted amino acids vs wild-type,enhanced peptide stability against protease-mediated degradation
same,Serum stability of soluble peptide,[2]; soluble VBP vs soluble VBPWT,higher than that of soluble VBPWT
same,VEGF binding affinity of soluble peptide,VEGF,higher than that of soluble VBPWT
VEGF,Endothelial proliferation below 1 ng ml^−1 VEGF,endothelial cells,proliferation is decreased at VEGF concentrations below 1 ng ml^−1
same,VEGF concentration of maximal endothelial proliferation,endothelial cells,1 to 1.2 ng/mL
heparin,Effect of soluble heparin on specificity of VEGF binding,"VEGF (rhVEGF165) [3]; 10 µg ml^−1 UFH in albumin-containing solution, 1.6% peptide density (Fig. 3C)",reduced non-specific binding of VEGF
same,Effect of soluble heparin on VEGF binding affinity,"VEGF (rhVEGF165) [3]; physiologic level of soluble heparin, UFH 10 µg ml^−1",increased VEGF binding affinity

# Source: publication PMC4149317 (Acta biomaterialia, 2013)
